Source: ChEMBL document CHEMBL1154479, “Newer GABA derivatives for the treatment of epilepsy including febrile seizures: a bioisosteric approach” (Eur J Med Chem, 2008)
The source made the active and inactive calls. The calls are words filed in the database; no cut-off is given here.

Tests used:
Mus musculus [1] = assay: Anticonvulsant activity in Swiss albino mouse assessed as inhibition of subcutaneous strychnine-induced seizures at 300 mg/kg, ip administered 30 mins before STY challenge measured after 0.5 hrs post STY challenge; assay type: functional, organism-based; parameters: dose 300 mg/kg
Mus musculus [2] = assay: Anticonvulsant activity in Swiss albino mouse assessed as inhibition of subcutaneous strychnine-induced seizures at 300 mg/kg, ip administered 30 mins before STY challenge measured after 4 hrs post STY challenge; assay type: functional, organism-based; parameters: dose 300 mg/kg
Mus musculus [3] = assay: Anticonvulsant activity in Swiss albino mouse assessed as inhibition of subcutaneous picrotoxin-induced seizures at 300 mg/kg, ip administered 30 mins before PIC challenge measured after 4 hrs post PIC challenge; assay type: functional, organism-based; parameters: dose 300 mg/kg
Rattus norvegicus = assay: Anticonvulsant activity in Wistar rat assessed as protection against hyperthermia-induced seizures at 100 mg/kg, ip relative to control; assay type: functional; settings: route intraperitoneal
Mus musculus [4] = assay: Neurotoxicity in ip dosed Swiss albino mouse assessed as inability of animal to maintain equilibrium on the rod for at least 1 min after 4 hrs by rotarod test; assay type: toxicity, organism-based; settings: in vivo
Mus musculus [5] = assay: Neurotoxicity in Swiss albino mouse assessed as inability of animal to maintain equilibrium on the rod for at least 1 min at 300 mg/kg, ip after 0.5 hrs by rotarod test; assay type: toxicity, organism-based; parameters: dose 300 mg/kg, route intraperitoneal; settings: in vivo
Mus musculus [6] = assay: Anticonvulsant activity in Swiss albino mouse assessed as inhibition of maximal electroshock-induced seizures at 300 mg/kg, ip administered 30 mins before electroshock measured after 0.5 hrs post electroshock; assay type: functional, organism-based; parameters: dose 300 mg/kg
Mus musculus [7] = assay: Anticonvulsant activity in Swiss albino mouse assessed as inhibition of subcutaneous pentylenetetrazole-induced seizures at 300 mg/kg, ip administered 30 mins before PTZ challenge measured after 0.5 hrs post PTZ challenge; assay type: functional, organism-based; parameters: dose 300 mg/kg
Mus musculus [8] = assay: Anticonvulsant activity in Swiss albino mouse assessed as inhibition of subcutaneous pentylenetetrazole-induced seizures at 300 mg/kg, ip administered 30 mins before PTZ challenge measured after 4 hrs post PTZ challenge; assay type: functional, organism-based; parameters: dose 300 mg/kg
Mus musculus [9] = assay: Anticonvulsant activity in ip dosed Swiss albino mouse assessed as inhibition of subcutaneous picrotoxin-induced seizures administered 30 mins before PIC challenge measured after 0.5 hrs post PIC challenge; assay type: functional
Mus musculus [10] = assay: Anticonvulsant activity in ip dosed Swiss albino mouse assessed as inhibition of subcutaneous picrotoxin-induced seizures administered 30 mins before PIC challenge measured after 4 hrs post PIC challenge; assay type: functional
Mus musculus [11] = assay: Neurotoxicity in Swiss albino mouse assessed as inability of animal to maintain equilibrium on the rod for at least 1 min at 300 mg/kg, ip after 4 hrs by rotarod test; assay type: toxicity, organism-based; parameters: dose 300 mg/kg, route intraperitoneal; settings: in vivo
Mus musculus [12] = assay: Anticonvulsant activity in Swiss albino mouse assessed as inhibition of subcutaneous picrotoxin-induced seizures at 300 mg/kg, ip administered 30 mins before PIC challenge measured after 0.5 hrs post PIC challenge; assay type: functional, organism-based; parameters: dose 300 mg/kg
Mus musculus [13] = assay: Neurotoxicity in ip dosed Swiss albino mouse assessed as inability of animal to maintain equilibrium on the rod for at least 1 min after 0.5 hrs by rotarod test; assay type: toxicity, organism-based; settings: in vivo
Mus musculus [14] = assay: Anticonvulsant activity in ip dosed Swiss albino mouse assessed as inhibition of maximal electroshock-induced seizures administered 30 mins before electroshock measured after 0.5 hrs post electroshock; assay type: functional
Mus musculus [15] = assay: Anticonvulsant activity in ip dosed Swiss albino mouse assessed as inhibition of subcutaneous pentylenetetrazole-induced seizures administered 30 mins before PTZ challenge measured after 0.5 hrs post PTZ challenge; assay type: functional
Mus musculus [16] = assay: Anticonvulsant activity in ip dosed Swiss albino mouse assessed as inhibition of subcutaneous strychnine-induced seizures administered 30 mins before STY challenge measured after 0.5 hrs post STY challenge; assay type: functional
Mus musculus [17] = assay: Anticonvulsant activity in ip dosed Swiss albino mouse assessed as inhibition of subcutaneous strychnine-induced seizures administered 30 mins before STY challenge measured after 4 hrs post STY challenge; assay type: functional
Mus musculus [18] = assay: Anticonvulsant activity in ip dosed Swiss albino mouse assessed as inhibition of subcutaneous pentylenetetrazole-induced seizures administered 30 mins before PTZ challenge measured after 4 hrs post PTZ challenge; assay type: functional

Row | Compound | Activity (Mus musculus [1]) | Activity (Mus musculus [2]) | Activity (Mus musculus [3]) | Activity (Rattus norvegicus) [%] | Activity (Mus musculus [4]) [mg/kg] | Activity (Mus musculus [5]) | Activity (Mus musculus [6]) | Activity (Mus musculus [7]) | Activity (Mus musculus [8]) | Activity (Mus musculus [9]) [mg/kg] | Activity (Mus musculus [10]) [mg/kg] | Activity (Mus musculus [11]) | Activity (Mus musculus [12]) | Activity (Mus musculus [13]) [mg/kg] | Activity (Mus musculus [14]) [mg/kg] | Activity (Mus musculus [15]) [mg/kg] | Activity (Mus musculus [16]) [mg/kg] | Activity (Mus musculus [17]) [mg/kg] | Activity (Mus musculus [18]) [mg/kg]
1 | O=C(O)CCCNC(=S)NN=C(Cc1ccccc1)Cc1ccccc1 | inactive | inactive | inactive | 73 | 300 | Non-toxic | inactive | inactive | inactive | – | – | – | – | – | – | – | – | – | –
2 | O=C(O)CCCNC(=S)N/N=C/c1ccc([N+](=O)[O-])cc1 | inactive | inactive | – | 85 | – | Non-toxic | inactive | inactive | inactive | 300 | 300 | Non-toxic | – | – | – | – | – | – | –
3 | Nc1nnc(-c2cccc(Cl)c2Cl)c(N)n1 [LAMOTRIGINE] | inactive | inactive | inactive | 51 | 100 | – | – | – | inactive | – | – | – | inactive | 100 | 30 | 30 | – | – | –
4 | CCC1(C)CC(=O)NC1=O (configuration not stated) [ETHOSUXIMIDE] | inactive | inactive | inactive | – | – | Non-toxic | inactive | – | inactive | – | – | Non-toxic | inactive | – | – | 300 | – | – | –
5 | CN(C)c1ccc(/C=N/NC(=S)NCCCC(=O)O)cc1 | – | – | – | 88 | – | Non-toxic | inactive | inactive | inactive | – | – | Non-toxic | – | – | – | – | 300 | 300 | –
6 | C/C(=N\NC(=S)NCCCC(=O)O)c1ccc(C)cc1 | inactive | inactive | inactive | 80 | – | Non-toxic | inactive | inactive | inactive | – | – | Non-toxic | inactive | – | – | – | – | – | –
7 | O=C(O)CCCNC(=S)N/N=C/c1ccccc1O | – | inactive | – | 92 | – | Non-toxic | inactive | – | inactive | – | – | Non-toxic | – | – | – | 100 | 100 | – | –
8 | O=C(O)CCCNC(=S)N/N=C(\c1ccccc1)c1ccc(Br)cc1 | – | inactive | – | 19 | – | – | inactive | inactive | inactive | – | – | Non-toxic | – | 300 | – | – | 100 | – | –
9 | O=C1NC(=O)C(c2ccccc2)(c2ccccc2)N1 [PHENYTOIN] | inactive | inactive | inactive | – | 100 | – | – | inactive | inactive | – | – | – | inactive | 100 | 30 | – | – | – | –
10 | C/C(=N\NC(=S)NCCCC(=O)O)c1cccc(N)c1 | inactive | inactive | – | 27 | – | Non-toxic | inactive | inactive | inactive | 300 | 300 | Non-toxic | – | – | – | – | – | – | –
11 | O=C(O)CCCNC(=S)N/N=C1\C(=O)Nc2ccccc21 | inactive | inactive | – | 92 | – | Non-toxic | inactive | – | inactive | 300 | 300 | Non-toxic | – | – | – | 30 | – | – | –
12 | O=C(O)CCCNC(=S)NN=C1CCCCC1 | inactive | inactive | – | 78 | – | Non-toxic | inactive | inactive | inactive | 300 | 300 | Non-toxic | – | – | – | – | – | – | –
13 | O=C(O)CCCNC(=S)NN=C1CCCC1 | inactive | inactive | inactive | 71 | – | Non-toxic | inactive | – | inactive | – | – | Non-toxic | inactive | – | – | 100 | – | – | –
14 | C/C(=N\NC(=S)NCCCC(=O)O)c1ccc([N+](=O)[O-])cc1 | inactive | inactive | inactive | 46 | 100 | – | inactive | inactive | inactive | – | – | – | inactive | 100 | – | – | – | – | –
15 | NNC(=S)NCCCC(=O)O | inactive | inactive | inactive | 27 | 300 | – | – | inactive | inactive | – | – | – | inactive | 300 | 300 | – | – | – | –
16 | C/C(=N\NC(=S)NCCCC(=O)O)c1ccccc1 | inactive | inactive | – | 90 | – | Non-toxic | inactive | – | inactive | 100 | 100 | Non-toxic | – | – | – | 300 | – | – | –
17 | O=C(O)CCCNC(=S)NN=C(c1ccccc1)c1ccccc1 | inactive | inactive | – | 83 | – | Non-toxic | – | inactive | inactive | – | – | Non-toxic | – | – | 300 | – | – | – | –
18 | O=C(O)CCCNC(=S)N/N=C/c1cccc([N+](=O)[O-])c1 | – | inactive | – | 51 | – | Non-toxic | inactive | inactive | – | 100 | 100 | Non-toxic | – | – | – | – | 300 | – | 300
19 | O=C(O)CCCNC(=S)N/N=C/c1ccc(Cl)cc1 | – | – | – | 49 | – | – | inactive | – | inactive | – | – | Non-toxic | – | 100 | – | 100 | 300 | 300 | –
